In patent publication US9387195B2, “Methods for treating diseases using isoindoline compounds” (Celgene Corporation, priority 2011, dated 2016):

Legend:
IFN-α production [1] = assay: IFN-α ELISA in CpG-A stimulated hPBMC (Example 18); assay type: cell-based, human; conditions: 1 μM CpG-A, 18 hours
Experimental: Human PBMCs (1×10^5 cells) were plated in 96-well plates (PBMCs) in RPMI media containing 10% FBS. Compounds were diluted with DMSO from a 4 mM stock of each compound to obtain different concentrations. Human PBMCs were pretreated with different concentrations of compounds for an hour prior stimulation. Cells were then stimulated with CpG-A ODN 2216 (1 μM) for 18 hours. […] The samples (Control E1 and Examples E2-E20) contained 1 μM CpG-A. Supernatant was collected after 18 hours. The IFN-α levels of samples were measured by the IFN-α ELISA obtained from PBL Interferon Source, Piscataway, N.J., known as Human IFN-alpha ELISA Kit. IFN-α levels of samples were assayed by the ELISA according to manufacturer's instructions. Inhibition of the production of IFN-α by individual compounds were determined in the CpG-A stimulated hPBMC cultures.

TNF-α production = assay: TNF-α ELISA, CpG-A stimulated human PBMCs or pDCs (Example 15); assay type: cell-based
Experimental: (§1) The IFN-α and TNF-α levels were measured by enzyme-linked immunoabsorbant assay (ELISA) obtained from R&D System, Minneapolis, Minn., known as Human IFN-alpha ELISA Kit (PBL Interferon Source, Cat #41100-1) and Human TNF-alpha Quantikine ELISA Kit (ThermoScientific, Cat # EH3TNFA5) respectively. […] Compounds were diluted with DMSO (PBMCs) or media (pDCs) from a 4 mM stock of each compound to obtain different concentrations. Human PBMCs or pDCs were pretreated with different concentrations of compounds for an hour prior stimulation. Cells were then stimulated with 1 μM (PBMCs) or 10 μM (PDCs) CpG-A ODN 2216 for 18 hours. The samples with Compound (II) (0.25 μM, 0.5 μM and 1 μM) are labeled as Examples B1-B3; the samples with Compound (I) (0.25 μM, 0.5 μM and 1 μM) are labeled as Examples B4-B6; the samples with CC-930 (1.0 μM, 2.0 μM and 3.0 μM) are labeled as Examples B7-B9; and the samples with chloroquine (0.5 μM, 1.0 μM and 2.0 μM) are labeled as Examples B10-B12. Keratinocytes of samples (Examples B1-B12) cultured in the presence of pDCs were stimulated with CpG-A oligonucleotide. Two control experiments were done. The first control experiment (Control BB1) was done with similar procedures mentioned-above but without CpG-A stimulation and without the addition of inhibitors. The second control experiment (Control BB2) was done with similar procedures mentioned-above but without the addition of inhibitors. Supernatant was collected after 18 hours. IFN-α and TNF-α levels were assayed by ELISA according to manufacturer's instructions.

keratinocyte cytokeratin = assay: pDC-keratinocyte co-culture with CpG-A stimulation, cytokeratin level (Example 16); assay type: cell-based, human; conditions: relative to Control BB2
Experimental: (§2) The Human pDC/HEKa Coculture involves stimulation with CpG-A oligodeoxynucleotide. CpG-A-stimulation would induce pDCs to secrete interferon-alpha (IFN-α) which in turn elicits increased expression of MxA protein from keratinocytes. HEKa were plated in 6-well plates at density of 1×10^5 cells/well and incubated overnight in a defined keratinocyte medium. The medium was removed in the next day and then 1.8×10^5 pDC cells, in defined pDC medium, were overlaid on the HEKa cells. Compound (II) was added to the medium to obtain final concentrations of 0.25 μM, 0.5 μM and 1 μM. One hour after the addition of Compound (II), CpG-A was added to each of the concentrations and then incubated overnight. Same samples from Example 15 were used here.
(§3) The cells were fixed and immunostained the co-cultures with antibodies to keratinocyte myxovirus resistance protein A (MxA) and Cytokeratin as follows using the ThermoScientific Cellomics High Content Screening (HCS) Readers using vHCS Scan Software.
(§4) Eighteen hours after the addition of Compound (II), cocultures were fixed for 30 minutes with BD fixation/permeabilization buffer, washed, and blocked with 2% normal goat serum/bovine serum albumin solution for an hour. Cocultures were then incubated overnight with primary antibodies to MxA and Cytokeratin. Cells were washed and incubated for an hour with Alexa anti-goat and anti-rabbit fluorescein (IgG1) or TRITC-conjugated (IgG) secondary antibodies. […] Cocultures were washed and incubated in 1X phosphate buffered saline (PBS) and plates scanned using Thermo Scientific ArrayScan VTI HCS Reader, a modular High Content Screening instrument designed for high-capacity automated fluorescence imaging and quantitative analysis of fixed and live cells. The output was analyzed using Cellomics Compartmental Analysis algorithm to quantitate fluorescence levels in the green and red channels. […] Mean fluorescence intensity levels of MxA and Cytokeratin of the samples were expressed as percentage of mean fluorescence intensity levels of MxA and cytokeratin of Control BB2. […]

IFN-α production [2] = assay: IFN-α ELISA, CpG-A stimulated human PBMCs or pDCs (Example 15); assay type: cell-based
Experimental: as §1

keratinocyte MxA [3] = assay: pDC-keratinocyte co-culture with CpG-A stimulation, keratinocyte MxA level (Example 16); assay type: cell-based, human; conditions: for decrease in the keratinocyte MxA level: relative to Control BB2
Experimental: as §2, §3, §4

keratinocyte MxA [4] = assay: Human pDC/HEKa coculture with CpG-A stimulation, keratinocyte MxA level (Example 14); assay type: cell-based; conditions: relative to CpG-A stimulated Example A1
Experimental: as §2, with “CpG-A oligodeoxynucleotide 2216. The CpG-A stimulation” for “CpG-A oligodeoxynucleotide. CpG-A-stimulation”, “0.5 μM, 1” for “0.5”, “and 2” for “and 1”, “of these” for “of the”, “overnight.” for “overnight. Same samples from Example 15 were used here.”
as §3
Eighteen hours after the addition of Compound (II), cocultures were fixed for 30 minutes with BD fixation/permeabilization buffer, washed, and blocked with 2% normal goat serum/bovine serum albumin solution for an hour. Cocultures were then incubated overnight with primary antibodies to MxA and Cytokeratin. Cells were washed and incubated for an hour with Alexa anti-goat and anti-rabbit fluorescein (IgG1) or TRITC-conjugated (IgG) secondary antibodies. Nuclei were stained with DAPI or 4′,6-diamidino-2-phenylindole. Cocultures were washed and incubated in 1X phosphate buffered saline (PBS) and plates scanned using Thermo Scientific ArrayScan VTI HCS Reader, a modular High Content Screening instrument designed for high-capacity automated fluorescence imaging and quantitative analysis of fixed and live cells. The output was analyzed using Cellomics Compartmental Analysis algorithm to quantitate fluorescence levels in the green and red channels. Data was exported to Microsoft Excel worksheets. Mean fluorescence intensity levels of MxA and Cytokeratin of the samples were expressed as percentage of mean fluorescence intensity levels of MxA and cytokeratin of Example A1. Histograms were generated and statistical analysis was performed using GraphPad Prism v4.0 (GraphPad Software, Inc., San Diego, Calif.).
FIGS. 1-2 show the levels of keratinocyte MxA and cytokeratin of the samples averaged from four independent experiments relative to the keratinocyte MxA and cytokeratin levels of Example A1 with pDCs derived from separate donors. […]

cytokeratin = assay: Human pDC/HEKa coculture with CpG-A stimulation, cytokeratin level (Example 14); assay type: cell-based; conditions: 0.25-2 μM; relative to Example A1
Experimental: The Human pDC/HEKa Coculture involves stimulation with CpG-A oligodeoxynucleotide 2216. The CpG-A stimulation would induce pDCs to secrete interferon-alpha (IFN-α) which in turn elicits increased expression of MxA protein from keratinocytes. HEKa were plated in 6-well plates at density of 1×10^5 cells/well and incubated overnight in a defined keratinocyte medium. The medium was removed in the next day and then 1.8×10^5 pDC cells, in defined pDC medium, were overlaid on the HEKa cells. Compound (II) was added to the medium to obtain final concentrations of 0.25 μM, 0.5 μM, 1 μM and 2 μM. […]
as §3
Eighteen hours after the addition of Compound (II), cocultures were fixed for 30 minutes with BD fixation/permeabilization buffer, washed, and blocked with 2% normal goat serum/bovine serum albumin solution for an hour. […] Cocultures were washed and incubated in 1X phosphate buffered saline (PBS) and plates scanned using Thermo Scientific ArrayScan VTI HCS Reader, a modular High Content Screening instrument designed for high-capacity automated fluorescence imaging and quantitative analysis of fixed and live cells. […]

[5] = 0.25, 0.5 and 1 μM, relative to CpG-A stimulation (Control BB2)
[6] = 0.25, 0.5 and 1 μM, relative to CpG-A stimulation (Control BB2), P<0.0001
[7] = 1.0, 2.0 and 3.0 μM (Examples B7-B9), relative to Control BB2
[8] = Homo sapiens, PBMC, read-out: inhibition of the production of IFN-α

## CCOc1cc(C(CS(C)(=O)=O)N2C(=O)c3cccc(NC(C)=O)c3C2=O)ccc1OC (single isomer, unassigned; (+)) [Compound (I), (+)-2-[1-(3-ethoxy-4-methoxyphenyl)-2-methylsulfonylethyl]-4-acetylaminoisoindoline-1,3-dione]
IFN-α production [1]; 0.5 μM, versus Control E1
  inhibition of the production of IFN-α: significant inhibition
IFN-α production [1]; 5 μM, versus Control E1
  inhibition of the production of IFN-α: significant inhibition
TNF-α production; [5]
  inhibition of the production of TNF-α: inhibited
Keratinocyte cytokeratin
  effect on the keratinocyte cytokeratin: no significant effect
IFN-α production [2]; [6]
  inhibition of the production of IFN-α: inhibited
Keratinocyte MxA [3]; 0.25, 0.5 and 1 μM (Examples B4-B6)
  ability to inhibit the production of the keratinocyte MxA, among the compounds tested: greatest ability to inhibit

## O[C@H]1CC[C@H](Nc2ncc3nc(Nc4c(F)cc(F)cc4F)n([C@H]4CCOC4)c3n2)CC1 [CC-930, reference compound]
IFN-α production [1]; 10 μM, versus Control E1
  inhibition of the production of IFN-α: inhibited
TNF-α production; [7]
  inhibition of the production of TNF-α: approximately 25%
Keratinocyte cytokeratin
  effect on the keratinocyte cytokeratin: no significant effect
IFN-α production [2]; [7]
  inhibition of the production of IFN-α: approximately 25%
Keratinocyte MxA [3]; 1 μM, P<0.05
  decrease in the keratinocyte MxA level: 32%

## CCN(CC)CCCC(C)Nc1ccnc2cc(Cl)ccc12 (stereo not drawn) [Chloroquine, chloroquine]
IFN-α production [1]; 5 μM, versus Control E1
  inhibition of the production of IFN-α: induced inhibition
TNF-α production; Homo sapiens, PBMC, read-out: inhibition of the production of TNF-α
  inhibition at 2 µM: ~50%
IFN-α production [2]; [8]
  inhibition at 1 µM: ~75%
  inhibition at 2 µM: ~75%

## CCOc1cc([C@@H](CS(C)(=O)=O)N2Cc3cccc(NC(=O)C4CC4)c3C2=O)ccc1OC [Compound (II), Cyclopropyl{2-[(1S)-1-(3-ethoxy-4-methoxyphenyl)-2-(methylsulfonyl)ethyl]-3-oxoisoindolin-4-yl}carboxamide]
Keratinocyte MxA [4]; 0.25 μM
  decrease in the keratinocyte MxA protein levels: 19%
Keratinocyte MxA [4]; 0.5 μM
  decrease in the keratinocyte MxA protein levels: 39%
Keratinocyte MxA [4]; 1 μM
  decrease in keratinocyte MxA levels: 29%
Keratinocyte MxA [4]; 2 μM
  decrease in keratinocyte MxA levels: 40%
IFN-α production [1]; 0.5 μM, versus Control E1
  inhibition of the production of IFN-α: significant inhibition
IFN-α production [1]; 5 μM, versus Control E1
  inhibition of the production of IFN-α: significant inhibition
TNF-α production; [5]
  inhibition of the production of TNF-α: inhibited
Keratinocyte cytokeratin
  effect on the keratinocyte cytokeratin: no significant effect
IFN-α production [2]; [6]
  inhibition of the production of IFN-α: inhibited
Keratinocyte MxA [3]; 0.25, 0.5 and 1 μM (Examples B1-B3)
  decrease in the keratinocyte MxA level: 13-15%
cytokeratin
  effect on the cytokeratin levels on the keratinocytes: no effect

## Nc1cccc2c1CN(C1CCC(=O)NC1=O)C2=O (stereo not drawn) [Lenalidomide, lenalidomide]
IFN-α production [1]; 10 μM, versus Control E1
  inhibition of the production of IFN-α: did not affect

## CCN(CC)CCCC(C)Nc1c2ccc(Cl)cc2nc2ccc(OC)cc12 (stereo not drawn) [Quinacrine, quinacrine]
IFN-α production [1]; 0.5 and 5 μM (Examples E19-E20)
  inhibition of the production of IFN-α: inhibited

## CCN(CCO)CCCC(C)Nc1ccnc2cc(Cl)ccc12 (stereo not drawn) [hydroxychloroquine]
IFN-α production [1]; 5 μM, versus Control E1
  inhibition of the production of IFN-α: induced inhibition

## O=C1CCC(N2C(=O)c3ccccc3C2=O)C(=O)N1 (stereo not drawn) [thalidomide]
IFN-α production [1]; 10 μM, versus Control E1
  inhibition of the production of IFN-α: did not affect
